The values that follow come from PubChem BioAssay (NCI).

What all share (assay): growth of human tumour cells (NCI), 48 h
Test [1] concerns SK-OV-3 ovarian.
Test [2] has as its system A549 NSCLC.
In test [3] the test system is SK-MEL-28 melanoma.
The test system of test [4] is EKVX NSCLC.
The subject of test [5] is NCI-H226 lung.
The test system of test [6] is KM12 colon.
Test [7] relates to NCI-H23 lung.
The test system of test [8] is UACC-62 melanoma.
Test [9] has as its system TK-10 renal.
Test [10] relates to SR leukemia.

Where “and” joins values, the source holds several entries; their conditions need not be identical. Equal entries are not always repeated.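 Dose response: 5 concentrations. Exposure: 48 h. Format: 96-well plates. Endpoint: linear interpolation; highest concentration if not reached. GI50 marks 50% less growth. TGI denotes the concentration required for complete inhibition of growth.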

For `Cc1c(C)c2ccc(OC/C=C3\CCC(=O)O3)cc2oc1=O`, the GI50 in test [1] is 26.5 µM; in [2], 16.9 µM; in test [3], 14.3 µM; in test [4] it was 18.7 µM; in test [5], 18.9 µM; in test [6], 13.8 µM. In addition, the figures for the GI50 in [7], in test [8] and in test [9] were 15.4 µM, 14.5 µM and 9.79 µM, respectively. In addition, the TGI in [1] was determined as 93.1 µM; in test [2], 31.9 µM; in [3], 28.1 µM; in [4], 40 µM; in [5], 40.8 µM; in test [6], 31.3 µM. The TGI in test [7] is 29.6 µM; in [8] it was 28.3 µM; in test [9] it was 23 µM.
For `CC1CC2(CC[C@@H]1O)OCCO2` (some centres not stated), the TGI in test [1], in test [2], in [4], in test [6], in [7] and in test [8] was greater than 100 µM throughout. This compound returned a TGI in [9] greater than 100 µM.
For the compound `O=C1C(=O)N(C2C3CC4CC(C3)CC2C4)C(=O)C(=O)C1c1nc2ccccc2o1` (configuration not stated), the TGI in [1], in test [2], in [3], in [4], in test [5] and in [6] was greater than 100 µM in each case. Also, the TGI in test [7], in [8] and in test [9] was greater than 100 µM in each case.
Take `CC(=O)C1=C([O-])C(C)OC1=O.CC(=O)C1=C([O-])C(C)OC1=O.[NH-]C1CCCC[C@H]1[NH-].[Pt+4]` (configuration not stated): the GI50 in test [1] is greater than 100 µM; in test [2] it was 88.1 µM; in [3], 43.8 µM; in test [4], greater than 100 µM; in [6], greater than 100 µM; in test [7] it was 47.5 µM. In addition, the GI50 is 42.3 µM in test [8] and greater than 100 µM in [9]. In addition, the TGI in test [1], in [2], in test [3], in test [4], in test [6] and in [7] was greater than 100 µM throughout. The TGI in test [8] and in [9] was greater than 100 µM each time.
Take `CCC1CN2CCc3cc(OC)c(OC)cc3C2CC1CC1c2cc(OC)c(OC)cc2CCN1C(=O)CNC(=O)OC(C)(C)C` (configuration not stated): the TGI in test [1] was 64.7 µM; in [2], 62.6 µM; in test [3], 61 µM; in test [4] it was 32.9 µM; in test [5], 53 µM; in test [6], 11.4 µM. The TGI in test [7] turned out to be 56.1 µM; in test [8] it was 56.4 µM; in test [9], 85.5 µM.
Take `CCCCCc1c(C)[nH]c(/C=C2\N=C(c3ccc[nH]3)C=C2Oc2ccc(Cl)cc2)c1C`: the GI50 in [1] is 0.308 µM and 0.277 µM; in test [10], 37.2 nM and < 10 nM; in test [2] it was 0.0753 µM and 0.0264 µM; in [3], 0.169 µM and 0.0742 µM; in test [6] it was 0.04 µM and 0.0133 µM; in test [7], 0.16 µM and 0.0739 µM. Besides, the GI50 in test [8] was 0.0418 µM and 0.0299 µM; in [9], 0.413 µM and 0.0539 µM. The TGI was 17.6 µM in [1]; greater than 100 µM in [10]; 0.382 µM and 0.229 µM in [2]; 1.53 µM and 0.943 µM in test [3]; 1.5 µM and 0.614 µM in test [6]; 3.25 µM and 2.62 µM in [7]. Further, the TGI in test [8] is 0.163 µM and 0.0884 µM; in [9], 5.45 µM and 0.921 µM.
In the case of `CC(C)[C@@H](COC(C)(C)C)N=CN1CCc2c([nH]c3ccccc23)C1`, the TGI in test [1], in test [2], in test [3], in test [4], in test [5] and in test [6] was greater than 100 µM each time. In addition, the TGI in [7], in [8] and in test [9] was greater than 100 µM throughout.
`COc1ccc2cc3n(c2c1)CCc1cc(OC)c(OC)cc1-3`: the TGI in test [1], in test [2], in test [3], in test [4], in [5] and in test [6] was greater than 100 µM in each case. Moreover, the TGI in test [7], in [8] and in test [9] was greater than 100 µM each time.
In the case of `O=C(O)CCC1CCc2cccc3occ1c23` (configuration not stated), the TGI in test [1], in test [2], in test [3], in [4], in test [5] and in test [6] was greater than 100 µM in each case. Besides, the TGI in [7], in test [8] and in test [9] was greater than 100 µM throughout.
As for `Cc1cccc(C)c1NC(=O)CCCC(=O)C1CCC/C1=N\NC(=O)C(=O)NN` (configuration not stated), the TGI in [1], in [2], in test [3], in test [4], in test [5] and in test [6] was greater than 100 µM each time. For the same compound, the TGI in test [7] and in test [9] was greater than 100 µM throughout.
For `CC1=CC(=O)C(C(C)=Nc2ccccc2Cl)C(=O)O1` (configuration not stated), the GI50 in [1], in [2], in [3], in test [4], in [5] and in [6] was greater than 100 µM in each case. The GI50 in test [7], in test [8] and in test [9] was greater than 100 µM in each case. Besides, the TGI in [1], in test [2], in [3], in test [4], in [5] and in test [6] was greater than 100 µM each time. The TGI in test [7], in test [8] and in test [9] was greater than 100 µM each time.
As to `CCO[C@@H]1C2C=CC(C2)[C@H]1[N+](=O)[O-]` (some centres not stated), the TGI in test [1], in [2], in test [3], in [4], in [5] and in test [6] was greater than 100 µM throughout. Moreover, the TGI in test [7], in test [8] and in [9] was greater than 100 µM throughout.
